“Also recorded” adds a separate entry of the source.
Tests used:
bradykinin-induced pain = assay: Bradykinin-induced pain after intra-articular administration (walking behavior pain score); assay type: in vivo, Wistar rats; conditions: intra-articular administration in rats; Figure 6
Experimental: The purpose of this study was to investigate the analgesic effects of GlcNAc with or without liposomal formulations, injected intra-articularly into the joint of Wistar rats. Pain was induced by intra-articular administration of bradykinin. Adult male Wistar rats with a weight range from 220g to 250g were obtained from Laboratory Animals Centre, National University of Singapore. Bradykinin and GlcNAc were obtained from Sigma. The liposomes were prepared as described above.
50 µl of GlcNAc solution or an GIcNAc formulated liposome suspension was injected into a rat joint cavity. An equal volume of saline was given intra-articularly as a control. 50 µl of bradykinin (60 µg/ml or at the indicated concentration) was given intra-articularly at different time points following the administration of GlcNAc.
Changes in walking behavior caused by intra-articular injection of bradykinin were used to define induced pain criteria in rats. The methods used to observe the pain response are defined in Table 2. The degree of pain was assigned a score according to the criteria in Table 3.

[1] = test system: IL-1β induced NO production in normal human articular chondrocytes; assay: IL-1β induced NO production in cultured chondrocytes (NO2 accumulation, Griess reaction); assay type: cell-based; conditions: for inhibitory activity on IL-1β induced NO production: concentration of 10 mM
Experimental: Chondrocytes were isolated from the cartilage by collagenase digestion and maintained in continuous monolayer cultures in DMEM containing 10% fetal bovine serum (FBS). Cell viability after chondrocyte isolation by collagenase digestion of normal cartilage was >95%. This level was maintained for at least 96 hrs post mortem. […] Experiments reported were performed with primary or first passage cells.
Chondrocytes were plated at 40,000 cells/well in 96-well plates in the presence of 1 % FBS. After 48 h, the medium was changed, and the cells were stimulated with IL-1β (Sigma) at a concentration of 5 ng/ml for 24 h. NO production was detected as NO2 accumulation in the culture supernatants by the Griess reaction as described elsewhere (Heval et al., (1994) Methods Enzymol. 233:250). IL-6 in the culture supernatants was measured by ELISA (R&D Systems, Minneapolis, MN) in accordance with the supplier's protocol.

[2] = test system: TNFα induced nitric oxide (NO) production in normal human articular chondrocytes; assay: TNFα induced NO production in chondrocytes; assay type: cell-based
chondrocytes = assay: Cell viability, MTT assay; assay type: cell-based, human; conditions: up to 20 mM

| Molecule | inhibitory activity on IL-1β induced NO production [1] | TNFα induced nitric oxide (NO) production [2] | NO production triggered by IL-1β [1] | other results |
| --- | --- | --- | --- | --- |
| Bradykinin (RPPGFSPFR; Bradykinin; UniProt P01042 381-389, looked up) |  |  |  | pain scores, dose response (bradykinin-induced pain): Higher pain scores correlate with the amount of injected Bradykinin |
| CC(=O)N[C@@H]1C(O)O[C@H](CO)[C@@H](O)[C@@H]1O (stereo partly shown) [N-acetylmannosamine] | did not inhibit | did not inhibit |  |  |
| CC(=O)N[C@H]1C(O)O[C@H](CO)[C@H](O)[C@@H]1O (stereo partly shown) [N-acetylgalactosamine] | demonstrated inhibitory activity |  |  |  |
| CC(=O)N[C@H]1[C@H](O[C@H]2[C@H](O)[C@@H](NC(C)=O)C(O)O[C@@H]2CO)O[C@H](CO)[C@@H](O)[C@@H]1O (stereo partly shown) [GlcNAc dimers, N,N'-diacetylchitobiose] |  |  | did not express inhibitory activity |  |
| N[C@H]1C(O)O[C@H](CO)[C@@H](O)[C@@H]1O (stereo partly shown) [GA, glucosamine] |  | inhibit | suppressed NO production; also recorded: measurably inhibited NO production in the lower millimolar range | concentrations not effective in inhibiting NO production [1]: below 1 mM; IC50 ([1]; Homo sapiens, Chondrocyte, IL-1β 5 ng/ml for 24 h, GlcNAc vs GA p < 0.01, read-out: IC50 (inhibition of NO production)): 14.9 ± 2.1 mM; cell viability (chondrocytes): Neither GA nor GlcNAc at dosages up to 20 mM affected cell viability |
| CC(=O)N[C@H]1[C@H](O[C@H]2[C@H](O)[C@@H](NC(C)=O)C(O)O[C@@H]2CO)O[C@H](CO)[C@@H](O[C@@H]2O[C@H](CO)[C@@H](O)[C@H](O)[C@H]2NC(C)=O)[C@@H]1O (stereo partly shown) [trimers, N,N',N"-triacetylchitotriose] |  |  | did not express inhibitory activity |  |
| O=C[C@H](O)[C@@H](O)[C@H](O)[C@H](O)C(=O)O [glucuronic acid] | did not inhibit | did not inhibit |  |  |

From EP1379135B1, “FORMULATIONS COMPRISING ENTRAPPED ACTIVE INGREDIENTS AND USES THEREOF” (THE SCRIPPS RESEARCH INSTITUTE, priority 2001, dated 2002)
